Measured values reported in ChEMBL document CHEMBL5113466, “Design, synthesis, and bioactivity evaluation of macrocyclic benzo[b]pyrido[4,3-e][1,4]oxazine derivatives as novel Pim-1 kinase inhibitors” (Bioorg Med Chem Lett, 2022).

Experiments:
[1] = tested on: MDA-MB-231; assay: Antiproliferative activity against human […] cells measured by cell viability assay; format: functional, cell-based
[2] = biological target: Serine/threonine-protein kinase pim-1 (Homo sapiens, UniProt P11309); assay: Inhibition of Pim-1 (unknown origin) measured by ADP-Glo kinase assay
Sequence of Serine/threonine-protein kinase pim-1 (P11309 whole entry): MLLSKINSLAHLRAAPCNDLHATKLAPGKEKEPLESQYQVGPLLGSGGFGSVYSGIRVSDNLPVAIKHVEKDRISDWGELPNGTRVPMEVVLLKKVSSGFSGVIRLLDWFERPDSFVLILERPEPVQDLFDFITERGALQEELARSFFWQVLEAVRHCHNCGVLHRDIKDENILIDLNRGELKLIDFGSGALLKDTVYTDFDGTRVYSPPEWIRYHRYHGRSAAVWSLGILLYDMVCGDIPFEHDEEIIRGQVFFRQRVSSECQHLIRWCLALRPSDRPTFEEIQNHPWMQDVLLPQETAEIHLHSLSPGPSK

Row | Compound | IC50 [1] [µM] | IC50 [2] [µM]
1 | c1cc2c(cn1)Oc1ccc3cc1N2CCOCCNCCCO3 | 30 | 0.881
2 | c1cc2c(cn1)Oc1ccc3cc1N2CCCCNCCCCO3 | 19 | 0.434
3 | c1cc2c(cn1)Oc1ccc3cc1N2CCOCCNCCCCO3 | 44 | 0.467
4 | c1cc2c(cn1)Oc1ccc3cc1N2CCCNCCOCCO3 | 19.5 | 0.0573
5 | c1cc2c(cn1)Oc1ccc3cc1N2CCOCCNCCCCCO3 | 35.4 | 2.19
6 | c1cc2c(cn1)Oc1ccc3cc1N2CCCCNCCCCCO3 | 16.3 | 0.27
7 | c1cc2c(cn1)Oc1ccc3cc1N2CCCCNCCOCCO3 | 12.3 | 0.176
8 | c1cc2c(cn1)Oc1ccc3cc1N2CCCCCNCCOCCO3 | 25.9 | 0.14
9 | c1cc2c(cn1)Oc1ccc3cc1N2CCCCCNCCCCO3 | 8.15 | 0.0351
